Source: patent publication US6734190B2, “Dihydrodipyrazolopyridinylbenzamide and -sulfonamide inhibitors of B7-1” (Wyeth, priority 2002, dated 2004)

Assays:
B7-1/CD28 = target: T1, B7-1/CD28 (Homo sapiens, UniProt P33681); assay: CD28/B7-1 ELISA (B7-1/CD28 binding inhibition); conditions: CD28-Fc coated wells; B7-1-Fc-biotin/streptavidin-alkaline phosphatase detection complex; 1% DMSO
T1 sequence (P33681 35-242 limits assumed): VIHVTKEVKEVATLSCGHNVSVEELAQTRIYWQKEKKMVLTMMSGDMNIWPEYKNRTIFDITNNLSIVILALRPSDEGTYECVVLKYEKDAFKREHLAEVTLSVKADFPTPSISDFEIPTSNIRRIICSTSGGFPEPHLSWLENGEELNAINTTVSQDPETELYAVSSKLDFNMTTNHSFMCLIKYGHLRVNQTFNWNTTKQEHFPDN
Procedure: Evaluation of B7-1/CD28 Binding Inhibition for Test Compounds
Wells are coated with 300 ng CD28-Fc in carbonate buffer (pH 9.4) overnight at 4° C., blocked with 1% bovine serum albumin in tris-buffered saline (TBS) for 1 h at 22° C. and washed 3 times in TBS prior to assay. The detection complex is formed as follows: B7-1-Fc-biotin, prepared using NHS-LC-biotin (Pierce #21335) according to the manufacturers instructions (4.1 moles biotinimole Fc), is added at 0.8 ug/ml to streptavidin-alkaline phosphatase (Caltag Sa1008) at 1:1000 in TBS. A solution of test compound in dimethylsulfoxide (1% final) are added to this complex and incubated 30 min at 22° C. Detection complex (+/−inhibitors) is then added to the CD28 coated wells for 25 min at 22° C., washed 5 times with TBS, developed with the colorimetric substrate pNPP (Pierce #34045) in diethanolamine/MgCl2 buffer (pH 9.5) and read at 405 nm. The inhibition constant (IC50) is calculated by subtracting background binding and comparing to uninhibited (DMSO alone) controls. The inhibition constant represents the concentration of test compound required to achieve 50% inhibition.

| IC50 (B7-1/CD28) | melting point | SMILES |
| --- | --- | --- |
| 57 nM | 183 °C (dec.) | Cn1ncc2c3[nH]n(-c4cccc(C(=O)NCc5ccc(N)cc5)c4)c(=O)c3c(-c3cccc(C(F)(F)F)c3)nc21 [Example 16] |
| 55 nM | 172 to 176 °C | COc1cc(CNC(=O)c2cccc(-n3[nH]c4c(c(-c5cccc(C(F)(F)F)c5)nc5c4cnn5C)c3=O)c2)ccc1O [Example 17] |
| 9 nM | 177.7 to 179.8 °C | Cn1ncc2c3[nH]n(-c4cccc(C(=O)NCc5ccc(O)c(O)c5)c4)c(=O)c3c(-c3cccc(C(F)(F)F)c3)nc21 [Example 18, N-(3,4-dihydroxybenzyl)-3-(6-methyl-3-oxo-4-[3-(trifluoromethyl)phenyl]-3,6-dihydrodipyrazolo[3,4-b:3,4-d]pyridin-2(1H)-yl)benzamide] |
| 22 nM | 212 to 215 °C | Cn1ncc2c3[nH]n(-c4ccc(Cl)c(C(=O)NCc5ccc(O)c(O)c5)c4)c(=O)c3c(-c3cccc(C(F)(F)F)c3)nc21 [Example 21] |
| 3 nM | 251 to 254 °C | CC(O)c1cccc(NC(=O)c2ccc(-n3[nH]c4c(c(-c5cccc(C(F)(F)F)c5)nc5c4cnn5C)c3=O)cc2)c1 (stereo not drawn) [Example 25] |
| 98 nM | 193 to 195 °C | Cn1ncc2c3[nH]n(-c4ccc(C(=O)NCCCO)cc4)c(=O)c3c(-c3cccc(C(F)(F)F)c3)nc21 [Example 28] |
| 107 nM | – | Cn1ncc2c3[nH]n(-c4ccc(C(=O)NCC5CC5)cc4)c(=O)c3c(-c3cccc(C(F)(F)F)c3)nc21 [Example 75] |
| 50 nM | – | CC(O)CNC(=O)c1ccc(-n2[nH]c3c(c(-c4cccc(C(F)(F)F)c4)nc4c3cnn4C)c2=O)cc1 (stereo not drawn) [Example 76] |
| 120 nM | – | CC(C)c1ccc(NC(=O)c2ccc(-n3[nH]c4c(c(-c5cccc(C(F)(F)F)c5)nc5c4cnn5C)c3=O)cc2)cc1 [Example 78] |
| 180 nM | – | Cn1ncc2c3[nH]n(-c4ccc(C(=O)Nc5cccnc5)cc4)c(=O)c3c(-c3cccc(C(F)(F)F)c3)nc21 [Example 79] |
| 120 nM | – | Cn1ncc2c3[nH]n(-c4ccc(C(=O)Nc5ccc(F)c(F)c5)cc4)c(=O)c3c(-c3cccc(C(F)(F)F)c3)nc21 [Example 82] |
| 110 nM | – | Cn1ncc2c3[nH]n(-c4ccc(C(=O)N5CCSC5)cc4)c(=O)c3c(-c3cccc(C(F)(F)F)c3)nc21 [Example 83] |
| 90 nM | – | Cc1c(CO)cccc1NC(=O)c1ccc(-n2[nH]c3c(c(-c4cccc(C(F)(F)F)c4)nc4c3cnn4C)c2=O)cc1 [Example 84] |
| 1800 nM | – | CN(CCC(N)=O)C(=O)c1ccc(-n2[nH]c3c(c(-c4cccc(C(F)(F)F)c4)nc4c3cnn4C)c2=O)cc1 [Example 85] |
| 40 nM | – | Cn1ncc2c3[nH]n(-c4ccc(C(=O)Nc5ccccc5CO)cc4)c(=O)c3c(-c3cccc(C(F)(F)F)c3)nc21 [Example 86] |
| 44 nM | – | Cn1ncc2c3[nH]n(-c4ccc(C(=O)Nc5ccc(CO)cc5)cc4)c(=O)c3c(-c3cccc(C(F)(F)F)c3)nc21 [Example 87] |
| 160 nM | – | CN(C)CCCNC(=O)c1ccc(-n2[nH]c3c(c(-c4cccc(C(F)(F)F)c4)nc4c3cnn4C)c2=O)cc1 [Example 90] |
| 67 nM | – | Cn1ncc2c3[nH]n(-c4ccc(C(=O)NCc5ccc(F)cc5)cc4)c(=O)c3c(-c3cccc(C(F)(F)F)c3)nc21 [Example 91] |
| 92 nM | – | Cn1ncc2c3[nH]n(-c4ccc(C(=O)NCCCCCO)cc4)c(=O)c3c(-c3cccc(C(F)(F)F)c3)nc21 [Example 96] |
| 800 nM | – | CCC(O)c1cccc(NC(=O)c2ccc(-n3[nH]c4c(c(-c5cccc(C(F)(F)F)c5)nc5c4cnn5C)c3=O)cc2)c1 (stereo not drawn) [Example 100] |
| 1500 nM | – | Cn1ncc2c3[nH]n(-c4ccc(S(=O)(=O)NCc5ccccc5)cc4)c(=O)c3c(-c3cccc(C(F)(F)F)c3)nc21 [Example 103, N-benzyl-4-[6-methyl-3-oxo-4-(3-trifluoromethyl-phenyl)-3,6-dihydro-1H-1,2,5,6,7-pentaaza-as-indacen-2-yl]-benzenesulfonamide] |

The next lines start with the compound.

| SMILES | IC50 (B7-1/CD28) | melting point |
| --- | --- | --- |
| Cn1ncc2c3[nH]n(-c4cccc(C(=O)N5CCCC5)c4)c(=O)c3c(-c3cccc(C(F)(F)F)c3)nc21 [Example 11, 6-methyl-2-[3-(1-pyrrolidinylcarbonyl)phenyl]-4-[3-(trifluoromethyl)phenyl]-1,6-dihydrodipyrazolo[3,4-b:3,4-d]pyridin-3(2H)-one] | 44 nM | 255 to 258 °C |
| Cn1ncc2c3[nH]n(-c4cccc(C(=O)N5CCC[C@@H]5C(=O)O)c4)c(=O)c3c(-c3cccc(C(F)(F)F)c3)nc21 [Example 13, (2R)-1-[3-(6-methyl-3-oxo-4-[3-(trifluoromethyl)phenyl]-3,6-dihydrodipyrazolo[3,4-b:3,4-d]pyridin-2(1H)-yl)benzoyl]-2-pyrrolidinecarboxylic acid] | 20 nM | 199 to 202 °C |
| Cn1ncc2c3[nH]n(-c4ccc(Cl)c(C(=O)N5CCC[C@@H]5C(=O)O)c4)c(=O)c3c(-c3cccc(C(F)(F)F)c3)nc21 [Example 22, 1-{2-chloro-5-[6-methyl-3-oxo-4-[3-(trifluoromethyl)pheny]-3,6-dihydrodipyrazolo[3,4-b:3′,4′-d]pyridin-2(1H)-yl]benzoyl}-D-proline] | 44 nM | 214 to 218 °C |
| CC(O)c1cccc(NC(=O)c2ccc(-n3[nH]c4c(c(-c5cccc(C(F)(F)F)c5)nc5c4cnn5C)c3=O)cc2F)c1 (stereo not drawn) [Example 24] | 110 nM | > 350 °C |
| COC(=O)C1CCN(C(=O)c2ccc(-n3[nH]c4c(c(-c5cccc(C(F)(F)F)c5)nc5c4cnn5C)c3=O)cc2)CC1 [Example 26] | 90 nM | 187 °C (dec.) |
| CN1CCN(C(=O)c2ccc(-n3[nH]c4c(c(-c5cccc(C(F)(F)F)c5)nc5c4cnn5C)c3=O)cc2)CC1 [Example 27] | 500 nM | 191 to 194 °C |
| Cn1ncc2c3[nH]n(-c4ccc(C(=O)Nc5ccccc5O)cc4)c(=O)c3c(-c3cccc(C(F)(F)F)c3)nc21 [Example 74, N-(2-hydroxyphenyl)-4-{6-methyl-3-oxo-3-[3-(trfluoromethyl)phenyl]-3,6-dihydrodipyrazolo[3,4-b:3′,4′-d]pyridin-2(1H)-yl}benzamide] | 17 nM | – |
| Cn1ncc2c3[nH]n(-c4ccc(C(=O)N5CCSCC5)cc4)c(=O)c3c(-c3cccc(C(F)(F)F)c3)nc21 [Example 77] | 140 nM | – |
| COC(CN(C)C(=O)c1ccc(-n2[nH]c3c(c(-c4cccc(C(F)(F)F)c4)nc4c3cnn4C)c2=O)cc1)OC [Example 80] | 170 nM | – |
| Cn1ncc2c3[nH]n(-c4ccc(C(=O)N5CCCC5)cc4)c(=O)c3c(-c3cccc(C(F)(F)F)c3)nc21 [Example 81] | 110 nM | – |
| CCN(CC)C(=O)C1CCCN(C(=O)c2ccc(-n3[nH]c4c(c(-c5cccc(C(F)(F)F)c5)nc5c4cnn5C)c3=O)cc2)C1 (stereo not drawn) [Example 88] | 290 nM | – |
| Cn1ncc2c3[nH]n(-c4ccc(C(=O)N5CCC(O)CC5)cc4)c(=O)c3c(-c3cccc(C(F)(F)F)c3)nc21 [Example 94] | 1200 nM | – |
| Cn1ncc2c3[nH]n(-c4ccc(C(=O)N5CCCC(O)C5)cc4)c(=O)c3c(-c3cccc(C(F)(F)F)c3)nc21 (stereo not drawn) [Example 95] | 390 nM | – |
| Cn1ncc2c3[nH]n(-c4ccc(S(=O)(=O)NCCCCCO)cc4)c(=O)c3c(-c3cccc(C(F)(F)F)c3)nc21 [Example 102, N-(5-Hydroxypentyl)-4-{6-methyl-3-oxo-4-[3-(trifluoromethyl)phenyl]-3,6-dihydrodipyrazolo[3,4-b:3′,4′-d]pyridin-2(1H)-yl}benzenesulfonamide] | 670 nM | – |
| Cn1ncc2c3[nH]n(-c4ccc(S(=O)(=O)NCCO)cc4)c(=O)c3c(-c3cccc(C(F)(F)F)c3)nc21 [Example 104, N-(2-hydroxyethyl)-4-(6-methyl-3-oxo-4-[3-(trifluoromethyl)phenyl]-3,6-dihydrodipyrazolo[3,4-b:3,4-d]pyridin-2(1H)-yl)benzenesulfonamide] | 950 nM | – |
| COC(=O)CNS(=O)(=O)c1ccc(-n2[nH]c3c(c(-c4cccc(C(F)(F)F)c4)nc4c3cnn4C)c2=O)cc1 [Example 105, methyl ({[4-(6-methyl-3-oxo-4-[3-(trifluoromethyl)phenyl]-3,6-dihydrodipyrazolo[3,4-b:3,4-d]pyridin-2(1H)-yl)phenyl]sulfonyl}amino)acetate] | 340 nM | – |
| Cn1ncc2c3[nH]n(-c4ccc(S(=O)(=O)NCC5CC5)cc4)c(=O)c3c(-c3cccc(C(F)(F)F)c3)nc21 [Example 106, N-cyclopropylmethyl-4-[6-methyl-3-oxo-4-(3-trfluoromethyl-phenyl)-3,6-dihydro-1H-1,2,5,6,7-pentaaza-as-indacen-2-yl]-benzenesulfonamide] | 900 nM | – |
| Cn1ncc2c3[nH]n(-c4ccc(S(=O)(=O)NCC(=O)O)cc4)c(=O)c3c(-c3cccc(C(F)(F)F)c3)nc21 [Example 107, ({[4-(6-methyl-3-oxo-4-[3-(trifluoromethyl)phenyl]-3,6-dihydrodipyrazolo[3,4-b:3,4-d]pyridin-2(1H)-yl)phenyl]sulfonyl}amino)acetic acid] | 450 nM | – |
